This passage reports TGI results from PubChem BioAssay (NCI).

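Following 48 hours of exposure in 96-well plates, responses at five concentrations were used to interpolate endpoints linearly. TGI: concentration producing complete growth inhibition.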

Holding throughout (experiment): NCI anticancer screen, dose series, 48 h
For experiment [1], the system named is ACHN renal.
Experiment [2] has as its system HL-60(TB) leukemia.
For experiment [3], the system named is HOP-92 NSCLC.
The test system of experiment [4] is HS 578T breast.
Experiment [5] deals with NCI-H226 lung.
Experiment [6] concerns NCI-H460 lung.
Experiment [7] has as its system NCI-H522 lung.
Experiment [8] concerns OVCAR-3 ovarian.
Experiment [9] relates to OVCAR-4 ovarian.
Experiment [10] concerns SK-MEL-5 melanoma.

Turning to `OC1(c2ccccc2)CCN(Cc2c[nH]c3ccccc23)CC1`, the TGI in [1], in [2], in [3], in experiment [4], in experiment [5] and in experiment [6] was greater than 100 µM each time. For the same molecule, the TGI in experiment [7], in [8], in [9] and in experiment [10] was greater than 100 µM each time.
As to `Cc1ccc2c(=O)cc(-c3ccc(Cl)s3)[nH]c2n1`, the TGI is greater than 100 µM in experiment [1]; 0.989 µM in experiment [2]; greater than 100 µM in experiment [3]; greater than 22.9 µM in experiment [4]; 7.79 µM in experiment [5]; greater than 100 µM in experiment [6]. The TGI is greater than 100 µM in [8], greater than 100 µM in experiment [9] and 17.7 µM in [10].
Take `CSCCC(N)C(=O)NCCNc1ccc(NCCNC(=O)C(N)CCSC)c2c1C(=O)c1ccccc1C2=O` (centres undefined): the TGI in experiment [1] is 5.45 µM; in [2], 5.36 µM; in [3], 3.4 µM; in experiment [4], 6.85 µM; in [5] it was 7.46 µM; in experiment [6], 9.33 µM. Also, the TGI in experiment [7] amounted to 1.3 µM; in experiment [8] it was 9.44 µM; in experiment [9], 3.71 µM; in [10] it was 13.2 µM.
For `C=C/C(C)=C\CC1[C@](C)(O)CC[C@H]2C(C)(C)C(=O)CC[C@]12C` (some centres undefined), the TGI was greater than 100 µM in experiment [1]; 60 µM in [2]; greater than 100 µM in experiment [3]; greater than 100 µM in experiment [4]; greater than 100 µM in experiment [5]; greater than 100 µM in experiment [6]. Also, the TGI in [7], in experiment [8], in [9] and in experiment [10] was greater than 100 µM throughout.
For the molecule `Cc1cc(-c2nc3cc(F)ccc3s2)ccc1NC(=O)[C@@H](N)CCCCN`, the TGI turned out to be 19.3 µM in [1]; 6.29 µM in experiment [2]; 30.3 µM in experiment [3]; 24.7 µM in [4]; 18.1 µM in experiment [5]; 2.24 µM in experiment [6]. In addition, the TGI in [7] is 21 µM; in experiment [8], 22.5 µM; in experiment [9] it was 22 µM; in experiment [10], 27.1 µM.
Take `COc1ccc(CC(N)c2ccc(OC)cc2)cc1` (centres undefined): the TGI in [1], in experiment [2], in [3], in [4], in experiment [5] and in experiment [6] was greater than 100 µM throughout. Besides, the TGI in [7], in experiment [8], in experiment [9] and in experiment [10] was greater than 100 µM each time.
In the case of `COP(=O)(OC)C(Cc1cn(C(C)=O)c2ccccc12)C(=O)O` (centres undefined), the TGI in [1], in [2], in experiment [3], in experiment [4], in experiment [5] and in experiment [6] was greater than 100 µM each time. The TGI in [7], in [8], in experiment [9] and in [10] was greater than 100 µM each time.
`O=c1[nH]nc(-c2ccccc2)n1/N=C\c1ccccc1`: the TGI in [1], in [2], in experiment [3], in [4], in [5] and in experiment [6] was greater than 100 µM throughout. Besides, the TGI in [7], in experiment [8], in experiment [9] and in [10] was greater than 100 µM throughout.
As to `O=C1C[C@@H](C(=O)OCc2ccccc2)NC(=O)C[C@@H](C(=O)OCc2ccccc2)NC(=O)C[C@@H](C(=O)OCc2ccccc2)N1`, the TGI is greater than 62.9 µM in experiment [1]; 9.88 µM in [2]; greater than 60.7 µM in experiment [3]; 72.3 µM in [4]; greater than 100 µM in experiment [5]; greater than 100 µM in experiment [6]. Moreover, the TGI in experiment [7], in [8], in [9] and in experiment [10] was greater than 100 µM in each case.
As to `CCCC(=O)NC(Nc1ccc(S(=O)(=O)Nc2cc(C)on2)cc1)(C(=O)OCC)C(F)(F)F` (centres undefined), the TGI in experiment [1], in experiment [2], in [3], in experiment [4], in experiment [5] and in [7] was greater than 100 µM each time. The TGI in [8], in experiment [9] and in experiment [10] was greater than 100 µM in each case.
As to `C[C@H](NC(=O)C(Cc1ccccc1)(Cc1ccc(O)cn1)NC(=O)c1ccccc1)c1ccccc1` (some centres undefined), the TGI was found to be 43.2 µM in [1]; 64.6 µM in experiment [2]; 38.8 µM in [3]; 41.1 µM in experiment [4]; 36.5 µM in [5]; 35.4 µM in [7]. Also, the TGI in experiment [8] turned out to be 28.7 µM; in experiment [9] it was 50.4 µM; in experiment [10] it was 33.7 µM.
Turning to `O=C(NCCCCCCCCCCCCNC(=O)Nc1cccc2ccccc12)Nc1cccc2ccccc12`, the TGI in experiment [1] was determined as 27.1 µM; in [2], 37.3 µM; in [3], 25.9 µM; in experiment [4], 52.4 µM; in experiment [6], 29.4 µM; in experiment [7], 28.9 µM. For the same molecule, the TGI is 30.3 µM in [8], 24.1 µM in experiment [9] and 46.2 µM in experiment [10].
On to `CCNC(=S)N=Nc1c(O)[nH]c2ccc([N+](=O)[O-])cc12`, for which the TGI in experiment [1], in experiment [2], in [3], in experiment [4], in experiment [5] and in experiment [6] was greater than 100 µM throughout. For the same molecule, the TGI in [8], in [9] and in [10] was greater than 100 µM each time.
Regarding `O=C1NC(Nc2ccccc2)=NC(C(F)(F)F)(C(F)(F)F)N1`, the TGI was greater than 100 µM in experiment [1]; greater than 100 µM in experiment [2]; 53.4 µM in experiment [3]; greater than 100 µM in experiment [4]; greater than 100 µM in experiment [5]; greater than 100 µM in [6]. For the same molecule, the TGI in experiment [8] was greater than 100 µM; in [9], greater than 100 µM; in experiment [10] it was 79.6 µM.
